# From patent US20010053350A1, “Cosmetic composition comprising N-ethyloxycarbonyl-4-amino-phenol and arbutin or its derivatives and/or ellagic acid or its derivatives” (L'OREAL, priority 1999, published 2001)
# Legend:
# [1] = test system: fungal tyrosinase; experiment: Inhibition of the activity of fungal tyrosinase in vitro (absorbance at 475 nm, L-tyrosine/L-dopa); format: biochemical; conditions: for molar concentration at which an inhibition figure of 25% was observed: fungal tyrosinase, phosphate buffer, solvent ethanol (C1), water (C2)
# Protocol: This test consisted in measuring the absorbance (optical density OD) at 475 nm, as a function of time, for each of the following active depigmenting principles:
# N-ethyloxycarbonyl-4-para-aminophenol arbutin in solution (at different concentrations) in an appropriate solvent in the presence of a phosphate buffer, 1 ml of L-tyrosine at 2.0×10^−3 M in a phosphate buffer, 0.1 ml of L-dopa at 1.0×10^−4 M in a phosphate buffer and 50 μl of 1 g/l fungal tyrosinase solution in a phosphate buffer, compared with a control consisting of the solvent used, at the same concentration in the phosphate buffer. Percentage inhibition was subsequently determined by the following equation: [formula]
# Subsequently, N-ethyloxycarbonyl-4-para-aminophenol and arbutin were mixed in concentrations C1 and C2 and N-ethyloxycarbonyl-4-para-aminophenol and ellagic acid were mixed in respective concentrations C1 and C3.
# [2] = Upper solubility limit in the test solvent (DMSO); format: physicochemical; conditions: organic solvent or mixture
Compound,molar concentration at which an inhibition figure of 25% was observed [1] [µM],inhibitory effect on tyrosinase activity ([1]; at concentration C3=1.35×10^−4 M (solubility limit in DMSO)),solubility [2] [µM]
CC(C)CCC[C@@H](C)[C@H]1CC[C@H]2[C@@H]3CC=C4C[C@@H](OC(=O)Nc5ccc(O)cc5)CC[C@]4(C)[C@H]3CC[C@]12C [N-cholesteryloxycarbonyl-4-para-aminophenol],66.7,–,–
CCOC(=O)Nc1ccc(O)cc1 [N-ethyloxycarbonyl-4-para-aminophenol],125,–,–
O=c1oc2c(O)c(O)cc3c(=O)oc4c(O)c(O)cc1c4c23 [ellagic acid],–,no inhibitory effect,135
Oc1ccc(O)cc1 [hydroquinone],80,–,–
arbutin,333,–,–
